Assay results as given in patent publication US20040142899A1, “Compositions and methods for enhanced biostability and altered biodistribution of oligonucleotides in mammals” (ISIS Pharmaceuticals, Inc., priority 1990, published 2004).

Experiments:
DNA = assay: Tm change due to pyrene conjugation, against DNA; assay type: binding; details: 100 mM Na+, 10 nM phosphate, 0.1 mM EDTA, pH 7, 4 μM strand concentration
Experimental: (§1) Changes in Tm due to pyrene conjugation were evaluated against both DNA and RNA. Tm was measured in 100 mM Na^+, 10 nM phosphate, 0.1 mM EDTA, pH 7 at 4 μM strand concentration.

RNA = assay: Tm change due to pyrene conjugation, against RNA; assay type: binding; details: 100 mM Na+, 10 nM phosphate, 0.1 mM EDTA, pH 7, 4 μM strand concentration
Experimental: as §1

5′-GCG-TGU*-CTG-CG (5'-GCG-TGU*-CTG-CG; 2'-O-aminohexyl uridine linker, as printed in the source, key not given here) [Oligomer 52, U* from 2′-O-[hexyl-(Ω-N-phthalimido)amino]uridine amidite; amino linker]
Tm v. DNA (DNA): 50.9 °C
Tm v. RNA (RNA): 55.5 °C
